Here are results for nine molecules from US20260356819A1, “OXOISOINDOLINYL-SUBSTITUTED […] DERIVATIVE AND USE THEREOF” (GLUETACS THERAPEUTICS (SHANGHAI) CO., LTD., priority 2023, published 2026).

Holding throughout (type): cell-based
Settings in all cases: compounds at 50 nM and 500 nM

Assay [1] concerns the target T1, WEE1 (Homo sapiens, UniProt P30291+Q96SW2).
T1 construct: The supernatant was aspirated as the extracted total cell protein; endogenous in cells; host or cells: human peripheral blood mononuclear cells (hPBMCs)
Nature of the assay: Western blot degradation of WEE1 in hPBMCs (24 h). A digest of the protocol: (§1)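 Western blot densitometry after 24 h treatment of human PBMCs (1×10^6 cells/mL) with 50 nM or 500 nM compound. Remaining target (%) = band intensity over internal-control band, normalized to DMSO; degradation = 1 − remaining; DC50 is the concentration giving half the DMSO band signal.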
In general terms: In western blotting, separated proteins are transferred to a membrane and probed.

Assay [2] deals with T2, IKZF1 (Homo sapiens, UniProt Q13422+Q96SW2).
T2 construct: The supernatant was aspirated as the extracted total cell protein; endogenous in cells; host or cells: human peripheral blood mononuclear cells (hPBMCs)
T2 sequence (Q13422 whole entry): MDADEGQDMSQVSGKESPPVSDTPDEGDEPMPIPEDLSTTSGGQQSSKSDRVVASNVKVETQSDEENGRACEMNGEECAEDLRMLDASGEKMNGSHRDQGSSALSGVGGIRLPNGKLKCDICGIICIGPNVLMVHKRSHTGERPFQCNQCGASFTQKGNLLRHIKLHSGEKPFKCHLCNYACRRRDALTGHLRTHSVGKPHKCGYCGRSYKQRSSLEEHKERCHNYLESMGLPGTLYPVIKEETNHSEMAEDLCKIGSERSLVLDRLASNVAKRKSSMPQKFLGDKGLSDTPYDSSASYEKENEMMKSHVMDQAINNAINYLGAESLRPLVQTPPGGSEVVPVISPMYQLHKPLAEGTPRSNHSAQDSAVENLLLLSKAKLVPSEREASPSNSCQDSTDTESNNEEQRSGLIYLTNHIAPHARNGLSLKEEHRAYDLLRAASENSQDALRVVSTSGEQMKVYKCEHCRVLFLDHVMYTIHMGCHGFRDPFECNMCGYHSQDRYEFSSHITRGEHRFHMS
T2 sequence (Q96SW2 whole entry): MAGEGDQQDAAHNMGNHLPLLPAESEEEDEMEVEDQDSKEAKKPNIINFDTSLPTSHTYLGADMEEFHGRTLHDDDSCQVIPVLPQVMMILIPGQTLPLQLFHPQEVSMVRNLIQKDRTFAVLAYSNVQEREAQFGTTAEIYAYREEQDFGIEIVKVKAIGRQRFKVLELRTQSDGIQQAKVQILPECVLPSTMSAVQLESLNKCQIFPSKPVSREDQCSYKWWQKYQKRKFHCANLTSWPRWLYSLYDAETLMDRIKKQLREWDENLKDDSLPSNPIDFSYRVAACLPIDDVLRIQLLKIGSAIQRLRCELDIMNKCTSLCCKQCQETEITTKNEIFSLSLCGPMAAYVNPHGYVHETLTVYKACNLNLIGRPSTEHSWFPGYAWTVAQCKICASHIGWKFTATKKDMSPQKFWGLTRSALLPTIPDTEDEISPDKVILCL
T2 sequence (Q16531 whole entry partner): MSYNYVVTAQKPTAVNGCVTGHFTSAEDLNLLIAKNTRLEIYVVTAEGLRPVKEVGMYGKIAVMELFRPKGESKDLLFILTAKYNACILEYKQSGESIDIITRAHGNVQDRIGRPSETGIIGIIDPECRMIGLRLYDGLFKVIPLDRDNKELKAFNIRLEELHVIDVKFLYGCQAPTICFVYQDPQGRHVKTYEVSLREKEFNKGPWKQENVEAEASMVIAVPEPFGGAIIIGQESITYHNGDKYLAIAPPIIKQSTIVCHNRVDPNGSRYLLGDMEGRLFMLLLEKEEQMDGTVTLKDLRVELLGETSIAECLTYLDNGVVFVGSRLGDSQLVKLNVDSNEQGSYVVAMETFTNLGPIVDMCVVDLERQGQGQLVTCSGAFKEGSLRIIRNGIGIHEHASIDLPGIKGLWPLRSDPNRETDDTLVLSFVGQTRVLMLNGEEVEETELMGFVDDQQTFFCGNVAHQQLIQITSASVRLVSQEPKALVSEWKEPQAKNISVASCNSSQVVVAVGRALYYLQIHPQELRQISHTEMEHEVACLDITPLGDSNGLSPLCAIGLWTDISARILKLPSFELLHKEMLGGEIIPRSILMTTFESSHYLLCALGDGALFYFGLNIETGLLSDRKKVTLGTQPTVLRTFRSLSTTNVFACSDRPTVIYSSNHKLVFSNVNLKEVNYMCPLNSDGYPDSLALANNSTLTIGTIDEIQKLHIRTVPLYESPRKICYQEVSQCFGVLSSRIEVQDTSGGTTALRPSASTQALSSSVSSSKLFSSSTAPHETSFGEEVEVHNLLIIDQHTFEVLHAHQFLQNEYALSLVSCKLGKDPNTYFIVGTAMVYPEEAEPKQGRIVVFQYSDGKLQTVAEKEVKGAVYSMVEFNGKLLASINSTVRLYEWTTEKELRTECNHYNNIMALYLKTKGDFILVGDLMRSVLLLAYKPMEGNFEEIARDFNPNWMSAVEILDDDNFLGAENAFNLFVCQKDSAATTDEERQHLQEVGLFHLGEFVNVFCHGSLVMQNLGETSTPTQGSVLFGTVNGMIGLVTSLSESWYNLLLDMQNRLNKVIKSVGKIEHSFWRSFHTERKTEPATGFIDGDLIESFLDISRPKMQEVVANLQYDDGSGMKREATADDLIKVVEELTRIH
Kind of assay: Western blot degradation of IKZF1 in hPBMCs (24 h). A digest of the protocol:
as §1

Assay [3] deals with T3, IKZF2 (Homo sapiens, UniProt Q96SW2+Q9UKS7).
T3 construct: The supernatant was aspirated as the extracted total cell protein; endogenous in cells; host or cells: human peripheral blood mononuclear cells (hPBMCs)
T3 sequence (Q9UKS7 whole entry): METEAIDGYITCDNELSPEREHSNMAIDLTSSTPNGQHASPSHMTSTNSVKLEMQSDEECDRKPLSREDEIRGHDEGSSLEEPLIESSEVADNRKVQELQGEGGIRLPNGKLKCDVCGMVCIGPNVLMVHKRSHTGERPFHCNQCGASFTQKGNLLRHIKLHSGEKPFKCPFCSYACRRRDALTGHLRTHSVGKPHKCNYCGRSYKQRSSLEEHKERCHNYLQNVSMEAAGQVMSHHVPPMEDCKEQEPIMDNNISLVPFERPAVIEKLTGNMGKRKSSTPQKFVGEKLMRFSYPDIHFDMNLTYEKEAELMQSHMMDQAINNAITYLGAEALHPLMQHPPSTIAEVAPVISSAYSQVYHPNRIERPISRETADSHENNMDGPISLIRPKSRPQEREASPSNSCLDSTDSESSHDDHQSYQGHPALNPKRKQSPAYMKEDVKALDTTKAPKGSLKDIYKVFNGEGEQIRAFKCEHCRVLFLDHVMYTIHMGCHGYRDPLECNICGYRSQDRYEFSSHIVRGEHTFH
T3 sequence (Q96SW2 whole entry): as the sequence (Q96SW2 whole entry) above
T3 sequence (Q16531 whole entry partner): as the sequence (Q16531 whole entry partner) above
Kind of assay: Western blot degradation of IKZF2 in hPBMCs (24 h). The essentials:
as §1

The target of assay [4] is T4, IKZF3 (Homo sapiens, UniProt Q96SW2+Q9UKT9).
T4 construct: The supernatant was aspirated as the extracted total cell protein; endogenous in cells; host or cells: human peripheral blood mononuclear cells (hPBMCs)
T4 sequence (Q9UKT9 whole entry): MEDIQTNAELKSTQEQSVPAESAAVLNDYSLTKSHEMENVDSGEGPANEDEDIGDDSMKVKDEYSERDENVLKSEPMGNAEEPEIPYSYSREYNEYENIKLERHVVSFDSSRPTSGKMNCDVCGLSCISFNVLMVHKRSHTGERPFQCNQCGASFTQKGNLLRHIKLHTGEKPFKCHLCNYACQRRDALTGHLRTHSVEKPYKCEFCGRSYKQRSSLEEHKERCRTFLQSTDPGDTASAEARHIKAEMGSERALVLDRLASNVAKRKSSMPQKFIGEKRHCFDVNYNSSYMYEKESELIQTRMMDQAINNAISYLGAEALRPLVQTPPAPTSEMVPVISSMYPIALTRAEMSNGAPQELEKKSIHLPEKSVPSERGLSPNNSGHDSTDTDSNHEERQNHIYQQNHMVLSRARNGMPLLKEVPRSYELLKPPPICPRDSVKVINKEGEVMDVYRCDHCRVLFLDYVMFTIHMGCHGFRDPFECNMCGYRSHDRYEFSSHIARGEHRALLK
T4 sequence (Q96SW2 whole entry): as the sequence (Q96SW2 whole entry) above
T4 sequence (Q16531 whole entry partner): as the sequence (Q16531 whole entry partner) above
Kind of assay: Western blot degradation of IKZF3 in hPBMCs (24 h). A digest of the protocol: as §1

For assay [5], the target named is T5, CK1α (Homo sapiens, UniProt P48729+Q96SW2).
T5 construct: The supernatant was aspirated as the extracted total cell protein; endogenous in cells; host or cells: human peripheral blood mononuclear cells (hPBMCs)
T5 sequence (P48729 whole entry): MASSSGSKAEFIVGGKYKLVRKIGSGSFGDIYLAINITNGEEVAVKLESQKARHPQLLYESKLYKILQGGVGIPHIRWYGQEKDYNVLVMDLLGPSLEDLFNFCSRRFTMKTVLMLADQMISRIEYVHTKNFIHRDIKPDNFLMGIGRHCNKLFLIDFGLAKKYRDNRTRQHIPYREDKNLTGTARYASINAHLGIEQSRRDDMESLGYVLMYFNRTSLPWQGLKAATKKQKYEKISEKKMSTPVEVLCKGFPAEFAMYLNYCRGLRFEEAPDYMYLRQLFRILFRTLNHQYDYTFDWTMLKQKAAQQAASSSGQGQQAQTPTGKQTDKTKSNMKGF
T5 sequence (Q96SW2 whole entry): as the sequence (Q96SW2 whole entry) above
T5 sequence (Q16531 whole entry partner): as the sequence (Q16531 whole entry partner) above
Nature of the assay: Western blot degradation of CK1α in hPBMCs (24 h). The essentials: as §1

Assay [6] has as its target T6, GSPT1 (Homo sapiens, UniProt P15170+Q96SW2).
T6 construct: The supernatant was aspirated as the extracted total cell protein; endogenous in cells; host or cells: human peripheral blood mononuclear cells (hPBMCs)
Nature of the assay: Western blot degradation of GSPT1 in hPBMCs (24 h). The essentials:
as §1

Molecules are shown by their SMILES.

T1 sequence (P30291 whole entry): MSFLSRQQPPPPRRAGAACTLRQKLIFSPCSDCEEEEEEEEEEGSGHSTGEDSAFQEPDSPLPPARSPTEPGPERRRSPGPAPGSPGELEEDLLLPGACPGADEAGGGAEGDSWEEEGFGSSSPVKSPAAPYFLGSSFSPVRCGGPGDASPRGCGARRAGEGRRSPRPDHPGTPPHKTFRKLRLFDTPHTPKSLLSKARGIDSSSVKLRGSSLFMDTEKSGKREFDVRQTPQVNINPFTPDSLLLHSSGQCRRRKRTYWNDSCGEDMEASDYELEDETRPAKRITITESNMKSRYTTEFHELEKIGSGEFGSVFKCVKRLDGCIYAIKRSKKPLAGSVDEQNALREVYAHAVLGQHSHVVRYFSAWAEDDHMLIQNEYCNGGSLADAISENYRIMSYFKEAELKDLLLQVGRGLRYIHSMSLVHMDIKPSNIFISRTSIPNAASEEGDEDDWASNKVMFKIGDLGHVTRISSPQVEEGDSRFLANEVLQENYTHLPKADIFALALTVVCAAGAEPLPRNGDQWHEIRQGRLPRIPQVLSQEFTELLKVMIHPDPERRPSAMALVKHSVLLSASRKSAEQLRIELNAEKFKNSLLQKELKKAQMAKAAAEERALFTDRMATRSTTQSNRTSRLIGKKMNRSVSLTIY
T1 sequence (Q96SW2 whole entry): as the sequence (Q96SW2 whole entry) above
T1 sequence (Q16531 whole entry partner): as the sequence (Q16531 whole entry partner) above

With `Cc1ccc(C2=CCN(Cc3ccc4c(c3)C(=O)N(N3CCC(=O)NC3=O)C4=O)CC2)s1` [GT-05310, 2-(2,4-dioxotetrahydropyrimidin-1(2H)-yl)-5-((4-(5-methylthiophen-2-yl)-3,6-dihydropyridin-1(2H)-yl)methyl)isoindoline-1,3-dione], the “WEE1 substrate protein remaining %” value in assay [1] was “B (80%< substrate protein remaining % ≤100%)”. For the same molecule, the “IKZF1 substrate protein remaining %” value in assay [2] was “B (80%< substrate protein remaining % ≤100%)”. Moreover, the “IKZF2 substrate protein remaining %” value in assay [3] is recorded as “B (80%< substrate protein remaining % ≤100%)”. Further, in assay [4], the “IKZF3 substrate protein remaining %” value is listed as “B (80%< substrate protein remaining % ≤100%)”. The “CK1α substrate protein remaining %” value in assay [5] is “B (80%< substrate protein remaining % ≤100%)”. Further, the “GSPT1 substrate protein remaining %” value in assay [6] is given as “A (0% ≤ substrate protein remaining % ≤80%)”.
For the molecule `O=C1CCN(N2C(=O)c3ccc(CN4CCN(c5ccsc5)CC4)cc3C2=O)C(=O)N1` [GT-05313, 2-(2,4-dioxotetrahydropyrimidin-1(2H)-yl)-5-((4-(thiophen-3-yl)piperazin-1-yl)methyl)isoindoline-1,3-dione], the “WEE1 substrate protein remaining %” value in assay [1] was “B (80%< substrate protein remaining % ≤100%)”. Also, in assay [2], the “IKZF1 substrate protein remaining %” value was “B (80%< substrate protein remaining % ≤100%)”. Besides, in assay [3], the “IKZF2 substrate protein remaining %” value is “B (80%< substrate protein remaining % ≤100%)”. In addition, the “IKZF3 substrate protein remaining %” value in assay [4] is “B (80%< substrate protein remaining % ≤100%)”. In assay [5], the “CK1α substrate protein remaining %” value is listed as “B (80%< substrate protein remaining % ≤100%)”. Further, in assay [6], the “GSPT1 substrate protein remaining %” value is given as “A (0% ≤ substrate protein remaining % ≤80%)”.
Turning to `Cc1cscc1C1CCN(Cc2ccc3c(c2)C(=O)N(N2CCC(=O)NC2=O)C3=O)CC1` [GT-05314, 2-(2,4-dioxotetrahydropyrimidin-1(2H)-yl)-5-((4-(4-methylthiophen-3-yl)piperidin-1-yl)methyl)isoindoline-1,3-dione], the “WEE1 substrate protein remaining %” value in assay [1] is listed as “B (80%< substrate protein remaining % ≤100%)”. In assay [2], the “IKZF1 substrate protein remaining %” value is listed as “B (80%< substrate protein remaining % ≤100%)”. Moreover, the “IKZF2 substrate protein remaining %” value in assay [3] is “B (80%< substrate protein remaining % ≤100%)”. For the same molecule, in assay [4], the “IKZF3 substrate protein remaining %” value was “B (80%< substrate protein remaining % ≤100%)”. Moreover, in assay [5], the “CK1α substrate protein remaining %” value is given as “B (80%< substrate protein remaining % ≤100%)”. Also, the “GSPT1 substrate protein remaining %” value in assay [6] is given as “A (0% ≤ substrate protein remaining % ≤80%)”.
Take `O=C1CCN(N2C(=O)c3ccc(CN4CCC(c5ccco5)CC4)cc3C2=O)C(=O)N1` [GT-05315, 2-(2,4-dioxotetrahydropyrimidin-1(2H)-yl)-5-((4-(furan-2-yl)piperidin-1-yl)methyl)isoindoline-1,3-dione]: the “WEE1 substrate protein remaining %” value in assay [1] is “B (80%< substrate protein remaining % ≤100%)”. Moreover, in assay [2], the “IKZF1 substrate protein remaining %” value is given as “B (80%< substrate protein remaining % ≤100%)”. The “IKZF2 substrate protein remaining %” value in assay [3] is “B (80%< substrate protein remaining % ≤100%)”. Also, in assay [4], the “IKZF3 substrate protein remaining %” value is reported as “B (80%< substrate protein remaining % ≤100%)”. The “CK1α substrate protein remaining %” value in assay [5] is listed as “B (80%< substrate protein remaining % ≤100%)”. Also, the “GSPT1 substrate protein remaining %” value in assay [6] is “A (0% ≤ substrate protein remaining % ≤80%)”.
On to `Cc1cscc1C1=CCN(Cc2ccc3c(c2)C(=O)N(N2CCC(=O)NC2=O)C3=O)CC1` [GT-05316, 2-(2,4-dioxotetrahydropyrimidin-1(2H)-yl)-5-((4-(4-methylthiophen-3-yl)-3,6-dihydropyridin-1(2H)-yl)methyl)isoindoline-1,3-dione], for which the “WEE1 substrate protein remaining %” value in assay [1] is reported as “B (80%< substrate protein remaining % ≤100%)”. Also, the “IKZF1 substrate protein remaining %” value in assay [2] is given as “B (80%< substrate protein remaining % ≤100%)”. Also, in assay [3], the “IKZF2 substrate protein remaining %” value is recorded as “B (80%< substrate protein remaining % ≤100%)”. Moreover, the “IKZF3 substrate protein remaining %” value in assay [4] was “B (80%< substrate protein remaining % ≤100%)”. For the same molecule, in assay [5], the “CK1α substrate protein remaining %” value is listed as “B (80%< substrate protein remaining % ≤100%)”. Besides, the “GSPT1 substrate protein remaining %” value in assay [6] is listed as “A (0% ≤ substrate protein remaining % ≤80%)”.
Consider `O=C1CCN(N2C(=O)c3ccc(CN4CC=C(c5ccco5)CC4)cc3C2=O)C(=O)N1` [GT-05317, 2-(2,4-dioxotetrahydropyrimidin-1(2H)-yl)-5-((4-(furan-2-yl)-3,6-dihydropyridin-1(2H)-yl)methyl)isoindoline-1,3-dione], for which the “WEE1 substrate protein remaining %” value in assay [1] is reported as “B (80%< substrate protein remaining % ≤100%)”. The “IKZF1 substrate protein remaining %” value in assay [2] is recorded as “B (80%< substrate protein remaining % ≤100%)”. Moreover, the “IKZF2 substrate protein remaining %” value in assay [3] is “B (80%< substrate protein remaining % ≤100%)”. Besides, the “IKZF3 substrate protein remaining %” value in assay [4] is reported as “B (80%< substrate protein remaining % ≤100%)”. Moreover, in assay [5], the “CK1α substrate protein remaining %” value is on record as “B (80%< substrate protein remaining % ≤100%)”. Moreover, the “GSPT1 substrate protein remaining %” value in assay [6] was “A (0% ≤ substrate protein remaining % ≤80%)”.
With `O=C1CCN(N2C(=O)c3ccc(CN4CCN(c5ccc(Cl)cn5)CC4)cc3C2=O)C(=O)N1` [GT-05350, 5-((4-(5-chloropyridin-2-yl)piperazin-1-yl)methyl)-2-(2,4-dioxotetrahydropyrimidin-1(2H)-yl)isoindoline-1,3-dione], the “WEE1 substrate protein remaining %” value in assay [1] is recorded as “B (80%< substrate protein remaining % ≤100%)”. Further, the “IKZF1 substrate protein remaining %” value in assay [2] is reported as “B (80%< substrate protein remaining % ≤100%)”. Moreover, the “IKZF2 substrate protein remaining %” value in assay [3] was “B (80%< substrate protein remaining % ≤100%)”. The “IKZF3 substrate protein remaining %” value in assay [4] is listed as “B (80%< substrate protein remaining % ≤100%)”. In assay [5], the “CK1α substrate protein remaining %” value was “B (80%< substrate protein remaining % ≤100%)”. In addition, the “GSPT1 substrate protein remaining %” value in assay [6] was “A (0% ≤ substrate protein remaining % ≤80%)”.
As for `Cc1cccc(N2CCN(Cc3ccc4c(c3)C(=O)N(N3CCC(=O)NC3=O)C4=O)CC2)n1` [GT-05352, 2-(2,4-dioxotetrahydropyrimidin-1(2H)-yl)-5-((4-(6-methylpyridin-2-yl)piperazin-1-yl)methyl)isoindoline-1,3-dione], the “WEE1 substrate protein remaining %” value in assay [1] is “B (80%< substrate protein remaining % ≤100%)”. The “IKZF1 substrate protein remaining %” value in assay [2] is “B (80%< substrate protein remaining % ≤100%)”. In addition, the “IKZF2 substrate protein remaining %” value in assay [3] is “A (0% ≤ substrate protein remaining % ≤80%)”. In assay [4], the “IKZF3 substrate protein remaining %” value is “B (80%< substrate protein remaining % ≤100%)”. The “CK1α substrate protein remaining %” value in assay [5] is “B (80%< substrate protein remaining % ≤100%)”. In addition, in assay [6], the “GSPT1 substrate protein remaining %” value is on record as “A (0% ≤ substrate protein remaining % ≤80%)”.
In the case of `O=C1CCN(N2Cc3cc(CN4CCN(c5nccc(Cl)c5F)CC4)ccc3C2=O)C(=O)N1` [GT-05358, 1-(5-((4-(4-chloro-3-fluoropyridin-2-yl)piperazin-1-yl)methyl)-1-oxoisoindolin-2-yl)dihydropyrimidine-2,4(1H,3H)-dione], the “WEE1 substrate protein remaining %” value in assay [1] is listed as “B (80%< substrate protein remaining % ≤100%)”. In addition, the “IKZF1 substrate protein remaining %” value in assay [2] is “B (80%< substrate protein remaining % ≤100%)”. Besides, the “IKZF2 substrate protein remaining %” value in assay [3] is recorded as “B (80%< substrate protein remaining % ≤100%)”. In addition, the “IKZF3 substrate protein remaining %” value in assay [4] is “B (80%< substrate protein remaining % ≤100%)”. The “CK1α substrate protein remaining %” value in assay [5] is recorded as “B (80%< substrate protein remaining % ≤100%)”. Moreover, in assay [6], the “GSPT1 substrate protein remaining %” value was “A (0% ≤ substrate protein remaining % ≤80%)”.
